Experimental data as given in ChEMBL document CHEMBL6096658, “Discovery of Potent, Highly Selective, and Efficacious SMARCA2 Degraders” (J Med Chem, 2025).
The source made the active and inactive calls. The rule behind the calls is not given here.

How the values were obtained:
[1] = Metabolic stability in female BALB/c mouse microsomes assessed as half life administered intravenously; assay type: ADME; conditions: route iv
NCI-H838 [2] = experiment: Antiproliferative activity against human NCI-H838 cells assessed as inhibition of cell proliferation incubated for 6 days by Cell Titer Glo assay; assay type: functional, cell-based; conditions: time 6.0 day
[3] = molecular target: T1, von Hippel-Lindau disease tumor suppressor/SWI/SNF-related matrix-associated actin-dependent regulator of chromatin subfamily A member 4 (Homo sapiens, UniProt P51532+P40337); experiment: PROTAC activity at VHL/SMARCA4 in human HT-1080 cells assessed as induction of SMARCA4 degradation incubated for 24 hrs by Nano-Glo HiBiT Lytic Detection Assay; assay type: cell-based
Calu-6 [4] = experiment: Antiproliferative activity against human Calu-6 cells assessed as cell growth inhibition incubated for 6 days by Cell Titer Glo assay; assay type: functional; conditions: Calu-6, 144 h, time 6 day
[5] = molecular target: T2, von Hippel-Lindau disease tumor suppressor/SWI/SNF-related matrix-associated actin-dependent regulator of chromatin subfamily A member 2 (Homo sapiens, UniProt P51531+P40337); experiment: In vivo PROTAC activity at VHL/ SMARCA2 in female BALB/c mouse xenografted with human HT-1080 cells assessed as reduction in SMARCA2 level in tumor at 10 mg/kg, iv measured after 24 hrs relative to control; assay type: functional, organism-based; parameters: scale not given: the % may be the effect or the level left
Target sequence in this assay (P40337 whole entry, looked up): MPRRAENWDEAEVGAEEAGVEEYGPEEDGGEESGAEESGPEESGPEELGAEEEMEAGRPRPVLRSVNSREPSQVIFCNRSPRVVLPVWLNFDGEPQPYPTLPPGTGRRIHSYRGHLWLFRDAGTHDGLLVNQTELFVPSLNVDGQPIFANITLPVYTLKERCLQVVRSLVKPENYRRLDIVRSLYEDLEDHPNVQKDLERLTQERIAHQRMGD
Target sequence in this assay (P51531 whole entry, looked up): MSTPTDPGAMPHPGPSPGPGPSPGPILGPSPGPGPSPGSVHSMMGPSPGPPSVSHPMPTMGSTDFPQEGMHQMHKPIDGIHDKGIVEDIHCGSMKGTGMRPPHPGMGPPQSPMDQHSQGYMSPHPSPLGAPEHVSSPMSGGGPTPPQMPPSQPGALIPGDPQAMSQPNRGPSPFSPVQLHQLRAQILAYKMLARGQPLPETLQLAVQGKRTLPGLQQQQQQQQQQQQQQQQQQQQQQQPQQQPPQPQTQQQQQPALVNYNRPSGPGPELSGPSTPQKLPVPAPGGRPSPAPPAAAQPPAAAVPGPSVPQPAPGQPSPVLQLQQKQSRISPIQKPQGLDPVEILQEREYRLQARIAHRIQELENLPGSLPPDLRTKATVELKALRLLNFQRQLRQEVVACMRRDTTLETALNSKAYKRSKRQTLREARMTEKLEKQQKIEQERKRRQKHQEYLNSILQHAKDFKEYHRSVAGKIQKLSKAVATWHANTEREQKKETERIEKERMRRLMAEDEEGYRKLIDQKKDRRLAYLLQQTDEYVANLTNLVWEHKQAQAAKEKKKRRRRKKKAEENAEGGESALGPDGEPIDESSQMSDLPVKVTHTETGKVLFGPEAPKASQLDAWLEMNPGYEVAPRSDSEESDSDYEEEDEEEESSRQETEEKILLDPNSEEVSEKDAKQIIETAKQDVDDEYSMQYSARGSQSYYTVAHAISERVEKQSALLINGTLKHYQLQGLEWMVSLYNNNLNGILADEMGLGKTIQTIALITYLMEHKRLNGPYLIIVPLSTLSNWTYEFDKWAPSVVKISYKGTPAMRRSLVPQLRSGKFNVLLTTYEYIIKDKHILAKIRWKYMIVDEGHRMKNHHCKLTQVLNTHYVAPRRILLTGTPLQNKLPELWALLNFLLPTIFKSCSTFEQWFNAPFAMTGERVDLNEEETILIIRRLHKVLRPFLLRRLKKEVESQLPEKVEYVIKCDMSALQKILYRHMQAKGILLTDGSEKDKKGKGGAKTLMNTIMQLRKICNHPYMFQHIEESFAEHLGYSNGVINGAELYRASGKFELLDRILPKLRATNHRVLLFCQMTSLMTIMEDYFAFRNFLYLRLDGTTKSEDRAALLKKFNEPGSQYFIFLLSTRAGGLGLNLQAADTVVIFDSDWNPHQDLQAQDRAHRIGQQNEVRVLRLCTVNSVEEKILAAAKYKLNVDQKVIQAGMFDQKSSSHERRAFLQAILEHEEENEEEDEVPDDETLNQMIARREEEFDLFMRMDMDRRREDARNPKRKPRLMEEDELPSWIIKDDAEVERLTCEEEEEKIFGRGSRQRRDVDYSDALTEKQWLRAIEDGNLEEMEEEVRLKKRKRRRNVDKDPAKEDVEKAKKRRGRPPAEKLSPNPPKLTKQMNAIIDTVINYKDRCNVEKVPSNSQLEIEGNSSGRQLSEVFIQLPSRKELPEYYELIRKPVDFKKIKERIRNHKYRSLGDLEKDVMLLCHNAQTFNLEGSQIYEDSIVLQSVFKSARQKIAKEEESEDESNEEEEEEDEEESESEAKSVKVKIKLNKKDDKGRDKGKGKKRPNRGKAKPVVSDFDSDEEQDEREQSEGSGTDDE

[6] = molecular target: T2, von Hippel-Lindau disease tumor suppressor/SWI/SNF-related matrix-associated actin-dependent regulator of chromatin subfamily A member 2; experiment: PROTAC activity at VHL/SMARCA2 in human HT-1080 cells assessed as induction of SMARCA2 degradation by measuring maximum efficacy incubated for 6 hrs by Nano-Glo HiBiT Lytic Detection Assay relative to control; assay type: cell-based
Target sequence in this assay (P40337 whole entry, looked up): as the sequence (P40337 whole entry, looked up) above
Target sequence in this assay (P51531 whole entry, looked up): as the sequence (P51531 whole entry, looked up) above

Calu-6 [7] = experiment: Antiproliferative activity against human Calu-6 cells assessed as inhibition of cell proliferation incubated for 6 days by Cell Titer Glo assay; assay type: functional, cell-based; conditions: time 6.0 day
NCI-H1373 [8] = experiment: Antiproliferative activity against human NCI-H1373 cells assessed as inhibition of cell proliferation incubated for 6 days by Cell Titer Glo assay; assay type: functional, cell-based; conditions: time 6.0 day
HT-1080 [9] = experiment: Antiproliferative activity against human HT-1080 cells assessed as inhibition of cell proliferation incubated for 6 days by Cell Titer Glo assay; assay type: functional, cell-based; conditions: time 6.0 day
[10] = molecular target: T1, von Hippel-Lindau disease tumor suppressor/SWI/SNF-related matrix-associated actin-dependent regulator of chromatin subfamily A member 4; experiment: In vivo PROTAC activity at VHL/ SMARCA4 in female BALB/c mouse xenografted with human HT-1080 cells at 1 mg/kg, iv measured after 24 hrs relative to control; assay type: functional, organism-based
Target sequence in this assay (P40337 whole entry, looked up): as the sequence (P40337 whole entry, looked up) above
Target sequence in this assay (P51532 whole entry, looked up): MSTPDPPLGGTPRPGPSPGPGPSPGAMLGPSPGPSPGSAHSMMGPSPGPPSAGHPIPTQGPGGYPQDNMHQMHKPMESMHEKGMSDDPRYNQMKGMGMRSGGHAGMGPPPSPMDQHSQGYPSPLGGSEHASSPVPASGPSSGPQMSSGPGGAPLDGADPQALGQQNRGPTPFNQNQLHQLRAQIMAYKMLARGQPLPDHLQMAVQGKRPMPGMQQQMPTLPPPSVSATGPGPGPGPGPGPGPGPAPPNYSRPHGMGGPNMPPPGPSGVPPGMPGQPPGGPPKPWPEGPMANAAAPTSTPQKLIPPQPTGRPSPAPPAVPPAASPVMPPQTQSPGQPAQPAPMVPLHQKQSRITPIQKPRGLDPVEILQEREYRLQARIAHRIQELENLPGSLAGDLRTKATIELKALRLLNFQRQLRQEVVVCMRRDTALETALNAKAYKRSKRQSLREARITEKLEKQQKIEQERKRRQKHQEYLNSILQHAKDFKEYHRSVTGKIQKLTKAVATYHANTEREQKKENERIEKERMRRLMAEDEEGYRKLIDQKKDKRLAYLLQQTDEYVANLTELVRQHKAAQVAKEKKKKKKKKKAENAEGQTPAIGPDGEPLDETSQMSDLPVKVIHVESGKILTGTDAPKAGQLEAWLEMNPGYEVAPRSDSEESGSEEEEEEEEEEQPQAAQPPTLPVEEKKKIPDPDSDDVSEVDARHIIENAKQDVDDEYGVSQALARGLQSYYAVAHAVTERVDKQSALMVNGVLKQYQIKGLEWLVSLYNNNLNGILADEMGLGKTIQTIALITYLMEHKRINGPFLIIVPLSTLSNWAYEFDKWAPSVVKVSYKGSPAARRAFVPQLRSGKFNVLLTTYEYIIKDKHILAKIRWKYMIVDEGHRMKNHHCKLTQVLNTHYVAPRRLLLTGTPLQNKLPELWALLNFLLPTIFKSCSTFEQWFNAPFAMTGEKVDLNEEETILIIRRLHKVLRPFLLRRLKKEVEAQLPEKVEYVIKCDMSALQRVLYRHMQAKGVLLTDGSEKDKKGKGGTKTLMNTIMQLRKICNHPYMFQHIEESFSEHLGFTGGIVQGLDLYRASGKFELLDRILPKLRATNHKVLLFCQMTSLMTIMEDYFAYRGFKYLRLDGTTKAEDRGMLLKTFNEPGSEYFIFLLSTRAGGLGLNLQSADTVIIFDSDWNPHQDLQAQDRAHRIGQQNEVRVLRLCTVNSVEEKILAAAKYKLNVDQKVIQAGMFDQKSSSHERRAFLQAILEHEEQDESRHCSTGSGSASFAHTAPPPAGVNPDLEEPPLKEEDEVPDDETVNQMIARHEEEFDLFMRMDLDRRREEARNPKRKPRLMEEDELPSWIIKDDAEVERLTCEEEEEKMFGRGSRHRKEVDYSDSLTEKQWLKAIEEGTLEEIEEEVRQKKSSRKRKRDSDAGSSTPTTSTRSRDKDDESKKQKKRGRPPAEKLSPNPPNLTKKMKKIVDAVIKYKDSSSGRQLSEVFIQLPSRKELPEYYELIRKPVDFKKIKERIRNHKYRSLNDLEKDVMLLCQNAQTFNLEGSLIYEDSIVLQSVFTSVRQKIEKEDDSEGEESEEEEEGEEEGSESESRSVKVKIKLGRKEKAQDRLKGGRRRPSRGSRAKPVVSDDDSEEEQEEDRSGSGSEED

[11] = Selectivity ratio of DC50 for PROTAC activity at VHL/SMARCA4 in human HT-1080 cells (unknown origin) to DC50 for VHL/SMARCA2 in human HT-1080 cells (unknown origin); assay type: cell-based
[12] = molecular target: T1, von Hippel-Lindau disease tumor suppressor/SWI/SNF-related matrix-associated actin-dependent regulator of chromatin subfamily A member 4; experiment: PROTAC activity at VHL/SMARCA4 in human HT-1080 cells assessed as induction of SMARCA4 degradation by measuring maximum efficacy incubated for 6 hrs by Nano-Glo HiBiT Lytic Detection Assay relative to control; assay type: cell-based
Target sequence in this assay (P40337 whole entry, looked up): as the sequence (P40337 whole entry, looked up) above
Target sequence in this assay (P51532 whole entry, looked up): as the sequence (P51532 whole entry, looked up) above

[13] = molecular target: T2, von Hippel-Lindau disease tumor suppressor/SWI/SNF-related matrix-associated actin-dependent regulator of chromatin subfamily A member 2; experiment: In vivo PROTAC activity at VHL/ SMARCA2 in female BALB/c mouse xenografted with human HT-1080 cells assessed as reduction in SMARCA2 level in tumor at 1 mg/kg, iv measured after 24 hrs relative to control; assay type: functional, organism-based; parameters: scale not given: the % may be the effect or the level left
Target sequence in this assay (P40337 whole entry, looked up): as the sequence (P40337 whole entry, looked up) above
Target sequence in this assay (P51531 whole entry, looked up): as the sequence (P51531 whole entry, looked up) above

[14] = molecular target: von Hippel-Lindau disease tumor suppressor (Homo sapiens, UniProt P40337); experiment: Binding affinity to VHL (unknown origin) incubated for 30 mins by HTRF assay
NCI-H838 [15] = experiment: Antiproliferative activity against human NCI-H838 cells assessed as cell growth inhibition incubated for 6 days by Cell Titer Glo assay; assay type: functional; conditions: NCI-H838, 144 h, time 6 day
[16] = molecular target: T1, von Hippel-Lindau disease tumor suppressor/SWI/SNF-related matrix-associated actin-dependent regulator of chromatin subfamily A member 4; experiment: In vivo PROTAC activity at VHL/ SMARCA4 in female BALB/c mouse xenografted with human HT-1080 cells at 10 mg/kg, iv measured after 24 hrs relative to control; assay type: functional, organism-based
Target sequence in this assay (P40337 whole entry, looked up): as the sequence (P40337 whole entry, looked up) above
Target sequence in this assay (P51532 whole entry, looked up): as the sequence (P51532 whole entry, looked up) above

[17] = molecular target: T2, von Hippel-Lindau disease tumor suppressor/SWI/SNF-related matrix-associated actin-dependent regulator of chromatin subfamily A member 2; experiment: PROTAC activity at VHL/SMARCA2 in human HT-1080 cells assessed as induction of SMARCA2 degradation incubated for 24 hrs by Nano-Glo HiBiT Lytic Detection Assay; assay type: cell-based
NCI-H1573 = experiment: Antiproliferative activity against human NCI-H1573 cells assessed as inhibition of cell proliferation incubated for 6 days by Cell Titer Glo assay; assay type: functional, cell-based; conditions: time 6.0 day
NCI-H1568 = experiment: Antiproliferative activity against human NCI-H1568 cells assessed as inhibition of cell proliferation incubated for 6 days by Cell Titer Glo assay; assay type: functional, cell-based; conditions: time 6.0 day
[18] = Metabolic stability in female BALB/c mouse microsomes assessed as hepatic extraction ratio administered intravenously; assay type: ADME; conditions: route iv, read-out: ERH
Calu-6 [19] = experiment: Antiproliferative activity against human Calu-6 cells assessed as inhibition of cell growth at 1 uM incubated for 6 days by Cell Titer Glo assay; assay type: functional; conditions: Calu-6, 144 h, time 6 day
[20] = molecular target: SWI/SNF-related matrix-associated actin-dependent regulator of chromatin subfamily A member 2 (Homo sapiens, UniProt P51531); experiment: Binding affinity to SMARCA2 (unknown origin) incubated for 30 mins by HTRF assay
[21] = molecular target: T2, von Hippel-Lindau disease tumor suppressor/SWI/SNF-related matrix-associated actin-dependent regulator of chromatin subfamily A member 2; experiment: Binding affinity to flag-tagged SMARCA2/VHL (unknown origin) assessed as ternary complex formation by measuring HTRF signal incubated for 120 mins by Envision reader analysis; assay type: protein assay
Target sequence in this assay (P40337 whole entry, looked up): as the sequence (P40337 whole entry, looked up) above
Target sequence in this assay (P51531 whole entry, looked up): as the sequence (P51531 whole entry, looked up) above

[22] = molecular target: SWI/SNF-related matrix-associated actin-dependent regulator of chromatin subfamily A member 4 (Homo sapiens, UniProt P51532); experiment: Binding affinity to SMARCA4 (unknown origin) incubated for 30 mins by HTRF assay
[23] = molecular target: T2, von Hippel-Lindau disease tumor suppressor/SWI/SNF-related matrix-associated actin-dependent regulator of chromatin subfamily A member 2; experiment: PROTAC activity at VHL/SMARCA2 in human HT-1080 cells assessed as induction of SMARCA2 degradation measured after 6 hrs by Nano-Glo HiBiT Lytic Detection Assay; assay type: cell-based; conditions: dose 0.02-1000 nM
Target sequence in this assay (P40337 whole entry, looked up): as the sequence (P40337 whole entry, looked up) above
Target sequence in this assay (P51531 whole entry, looked up): as the sequence (P51531 whole entry, looked up) above

Calu-6 [24] = experiment: Antiproliferative activity against wild type human Calu-6 cells assessed as inhibition of cell proliferation incubated for 6 days by Cell Titer Glo assay; assay type: functional, cell-based; conditions: time 6.0 day
HT-1080 [25] = experiment: Antiproliferative activity against wild type human HT-1080 cells assessed as inhibition of cell proliferation incubated for 6 days by Cell Titer Glo assay; assay type: functional, cell-based; conditions: time 6.0 day
[26] = molecular target: T1, von Hippel-Lindau disease tumor suppressor/SWI/SNF-related matrix-associated actin-dependent regulator of chromatin subfamily A member 4; experiment: In vivo PROTAC activity at VHL/ SMARCA4 in female BALB/c mouse xenografted with human HT-1080 cells assessed as increase in SMARCA4 level administered intravenously and measured after 24 hrs; assay type: functional, organism-based; conditions: route iv
Target sequence in this assay (P40337 whole entry, looked up): as the sequence (P40337 whole entry, looked up) above
Target sequence in this assay (P51532 whole entry, looked up): as the sequence (P51532 whole entry, looked up) above

[27] = molecular target: T2, von Hippel-Lindau disease tumor suppressor/SWI/SNF-related matrix-associated actin-dependent regulator of chromatin subfamily A member 2; experiment: PROTAC activity at VHL/SMARCA2 in human HT-1080 cells assessed as induction of SMARCA2 degradation pretreated with MG132 followed by compound addition and measured after 6 hrs by Nano-Glo HiBiT Lytic Detection Assay; assay type: cell-based
Target sequence in this assay (P40337 whole entry, looked up): as the sequence (P40337 whole entry, looked up) above
Target sequence in this assay (P51531 whole entry, looked up): as the sequence (P51531 whole entry, looked up) above

NCI-H1373 [28] = experiment: Antiproliferative activity against wild type human NCI-H1373 cells assessed as inhibition of cell proliferation incubated for 6 days by Cell Titer Glo assay; assay type: functional, cell-based; conditions: time 6.0 day
[29] = molecular target: T1, von Hippel-Lindau disease tumor suppressor/SWI/SNF-related matrix-associated actin-dependent regulator of chromatin subfamily A member 4; experiment: PROTAC activity at VHL/SMARCA4 in human HT-1080 cells assessed as induction of SMARCA4 degradation pretreated with MLN4924 followed by compound addition and measured after 6 hrs by Nano-Glo HiBiT Lytic Detection Assay; assay type: cell-based
Target sequence in this assay (P40337 whole entry, looked up): as the sequence (P40337 whole entry, looked up) above
Target sequence in this assay (P51532 whole entry, looked up): as the sequence (P51532 whole entry, looked up) above

[30] = molecular target: T1, von Hippel-Lindau disease tumor suppressor/SWI/SNF-related matrix-associated actin-dependent regulator of chromatin subfamily A member 4; experiment: PROTAC activity at VHL/SMARCA4 in human HT-1080 cells assessed as induction of SMARCA4 degradation pretreated with MG132 followed by compound addition and measured after 6 hrs by Nano-Glo HiBiT Lytic Detection Assay; assay type: cell-based
Target sequence in this assay (P40337 whole entry, looked up): as the sequence (P40337 whole entry, looked up) above
Target sequence in this assay (P51532 whole entry, looked up): as the sequence (P51532 whole entry, looked up) above

[31] = molecular target: T2, von Hippel-Lindau disease tumor suppressor/SWI/SNF-related matrix-associated actin-dependent regulator of chromatin subfamily A member 2; experiment: PROTAC activity at VHL/SMARCA2 in human HT-1080 cells assessed as induction of SMARCA2 degradation pretreated with MLN4924 followed by compound addition and measured after 6 hrs by Nano-Glo HiBiT Lytic Detection Assay; assay type: cell-based
[32] = molecular target: T2, von Hippel-Lindau disease tumor suppressor/SWI/SNF-related matrix-associated actin-dependent regulator of chromatin subfamily A member 2; experiment: PROTAC activity at VHL/SMARCA2 in human HT-1080 cells assessed as induction of SMARCA2 degradation at 0.02 to 1000 nM by Nano-Glo HiBiT Lytic Detection Assay; assay type: cell-based; conditions: dose 0.02-1000 nM, time 6-24 hrs

von Hippel-Lindau disease tumor suppressor, sequence (P40337 whole entry): as the sequence (P40337 whole entry, looked up) above

| SMILES | half-life [1] [h] | Activity (NCI-H838 [2]) | DC50 [3] [nM] | GI50 (Calu-6 [4]) [nM] | Activity [5] [%] | Emax [6] [%] | Ratio [11] | Emax [12] [%] | Activity [13] [%] | IC50 [14] [nM] | GI50 (NCI-H838 [15]) [nM] | DC50 [17] [nM] | Activity (NCI-H1573) | Activity (NCI-H1568) | also measured |
| --- | --- | --- | --- | --- | --- | --- | --- | --- | --- | --- | --- | --- | --- | --- | --- |
| Cc1ncsc1-c1ccc([C@H](C)NC(=O)[C@@H]2C[C@@H](O)CN2C(=O)[C@H](C(C)C)n2cc([C@H]3CC[C@H](CN4CCC(c5ccc6c(c5)C(C)(C)c5nc(=O)c7c(Cl)cccc7n5-6)CC4)CC3)nn2)cc1 | 5 | Active | 0.85 | 280 | > 95 | 98 | 4 | 97 | 94 | 2.1 | 3 | 0.22 | Active | Active | Activity (Calu-6 [7]): Active; Activity (NCI-H1373 [8]): Active; Activity (HT-1080 [9]): Active; Activity [10]: 54%; Activity [16]: 93% |
| Cc1ncsc1-c1ccc([C@H](C)NC(=O)[C@@H]2C[C@@H](O)CN2C(=O)[C@@H](n2cc([C@H]3CC[C@H](CN4CCC(c5ccc6c(c5)C(C)(C)c5nc(=O)c7c(Cl)cccc7n5-6)CC4)CC3)nn2)C(C)(C)C)cc1 | 1.5 | – | 12 | > 1000 | – | 97 | 43 | 78 | – | 1.5 | 32 | 0.28 | – | – | hepatic extraction ratio [18]: 0.44 |
| Cc1ncsc1-c1ccc([C@H](C)NC(=O)[C@@H]2C[C@@H](O)CN2C(=O)[C@@H](c2cc(N3CCC(CN4CCC(c5ccc6c(c5)-n5c(nc(=O)c7c(Cl)cccc75)C6(C)C)CC4)CC3)no2)C(C)C)cc1 | – | – | 63 | > 1000 | – | 97 | 37 | 69 | – | 8.6 | 27 | 1.7 | – | – | inhibition at 1 µM (Calu-6 [19]): < 15%; IC50 [20]: 30 nM; Activity [21]: Active; Smarca2-Vhl Shows 60% Greater Auc Compared To Smarca4-Vhl Was Observed; IC50 [22]: 63 nM |
| Cc1ncsc1-c1ccc([C@H](C)NC(=O)[C@@H]2C[C@@H](O)CN2C(=O)[C@@H](n2cc([C@H]3CC[C@H](CN4CCC(c5ccc6c(c5)-n5c(nc(=O)c7c(Cl)cccc75)C6(C)C)CC4)CC3)nn2)C(C)(C)C)cc1 | 10 | Active | 94 | > 1000 | > 95 | 97 | 72 | 68 | 83 | 25 | 34 | 1.3 | Active | Active | Activity [23]: Dose-dependent-effect; Activity (Calu-6 [24]): Active; Less Activity Observed; Activity (HT-1080 [25]): Active; Less Activity Observed; Activity [26]: Active; Activity [27]: inactive; Activity (NCI-H1373 [28]): Active; Less Activity Observed; Activity [29]: inactive; Activity [30]: inactive; Activity [31]: inactive; Activity [32]: Time-dependent-effect |
